Earlier results in US10918618B2, “Methods of reducing microbial contamination” (3M INNOVATIVE PROPERTIES COMPANY, priority 2005, dated 2021).

SMILES	solubility limit
[H]/N=C(\N/C(=N/[H])NCCCCCCNC(=N)NC(=N)Nc1ccc(Cl)cc1)Nc1ccc(Cl)cc1 [diacetate, chlorhexidine]	1.9 g/100 mL
N=C(NCCCCCCNC(=N)NC(=N)Nc1ccc(Cl)cc1)NC(=N)Nc1ccc(Cl)cc1.O=C(O)[C@H](O)[C@@H](O)[C@H](O)[C@H](O)CO.O=C(O)[C@H](O)[C@@H](O)[C@H](O)[C@H](O)CO [digluconate salt, chlorhexidine digluconate]	20 g/100 mL
